Test results from patent US20260146046A1, “BICYCLIC FERROPORTIN INHIBITORS” (Vifor (International) AG, priority 2022, published 2026).

Molecular target: T1, ferroportin (Fpn) (Mus musculus, UniProt Q9JHI9)
T1 construct: endogenous in cells; host or cells: J774 mouse macrophage cell line, induced with Fe(III)NTA
T1 sequence (Q9JHI9 1-570): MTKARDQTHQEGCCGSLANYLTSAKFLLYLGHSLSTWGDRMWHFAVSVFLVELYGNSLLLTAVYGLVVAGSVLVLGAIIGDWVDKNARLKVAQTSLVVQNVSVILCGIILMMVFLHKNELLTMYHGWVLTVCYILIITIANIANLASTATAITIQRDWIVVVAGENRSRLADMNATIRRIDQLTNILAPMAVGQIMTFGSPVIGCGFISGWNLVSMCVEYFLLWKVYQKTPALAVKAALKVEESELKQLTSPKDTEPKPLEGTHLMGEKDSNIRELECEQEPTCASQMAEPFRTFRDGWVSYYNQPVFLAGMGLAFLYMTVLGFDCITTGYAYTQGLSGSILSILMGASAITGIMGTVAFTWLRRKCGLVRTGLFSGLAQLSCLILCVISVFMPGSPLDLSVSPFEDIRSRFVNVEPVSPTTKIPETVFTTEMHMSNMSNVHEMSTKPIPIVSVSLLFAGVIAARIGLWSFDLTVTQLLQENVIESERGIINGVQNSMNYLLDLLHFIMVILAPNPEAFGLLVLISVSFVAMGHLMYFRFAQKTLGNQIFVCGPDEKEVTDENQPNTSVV
Test: Hepcidin Internalization Assay (J774)
Assay type: cell-based
Details: J774 cells, 25 nM TMR-hepcidin, 2 hours; average of multiple measurements; read-out: Average (AVE) IC50 of Fpn inhibitors in the hepcidin internalization assay
Description: This cellular assay allows quantification of the binding of hepcidin to ferroportin (Fpn) through microscopic detection of internalization of a fluorescently labeled hepcidin into J774 cells. […] Binding of hepcidin to Fpn triggers internalization and degradation of both hepcidin and Fpn. […] Therefore, microscopic detection of cell-associated TMR fluorescence is a measure of hepcidin binding to Fpn and internalization of hepcidin and Fpn. If TMR-hepcidin is prevented from binding to Fpn, cellular TMR fluorescence remains low (Durrenberger et al, 2013). The effect of small molecular weight Fpn inhibitor compounds in this assay was evaluated in vitro as described below. […] Cat. 655090) and grown at 37° C. with 5% CO2. After overnight incubation, cells were washed 3 times with pre-warmed DMEM w/o phenol red, 30 μl/well of DMEM w/o phenol red was added after the final wash and 10 μl/well of dilution series of test compounds were added in triplicates. […] Cells were incubated in a total volume of 50 μl at 37° C. with 5% CO2 for 2 hours, then Hoechst 33342 dye was added to a final concentration of 0.5 μg/ml to stain nuclei and further incubated for 10 min. at 37° C. with 5% CO2. […] After removal of the paraformaldehyde solution, cells were washed 3 times with PBS leaving 100 μl per well and the plates were sealed with foil plate seal. […] The acquired image data was analysed with the […] analysis software. […] IC50 values were calculated with the Sum(Mean) raw data using “log(inhibitor) vs. response” curve fitting of Prism 5 software (GraphPad Software Inc., version 5.02). For each data set the fit of the “log(inhibitor) vs. response (three parameters)” model was compared to the fit of the “log(inhibitor) vs. response-Variable slope (four parameters)” model and the IC50 data of the preferred model was used.

Row | SMILES | IC50 [µM]
1 | Fc1cccnc1CNc1nccc2oc(CCNCCc3nc4cc5c(cc4n3CC3CC3)OCCO5)nc12 [Example Compound No. 13, 2-(2-((2-(1-(cyclopropylmethyl)-6,7-dihydro-1H-[1,4]dioxino[2′,3′:4,5]benzo[1,2-d]-imidazol-2-yl)ethyl)amino)ethyl)-N-((3-fluoropyridin-2-yl)methyl)oxazolo[4,5-c]pyridin-4-amine] | 0.005
2 | Fc1cccnc1CNc1nccc2oc(CCNCCc3nc4cc5c(cc4n3CCN3CCOCC3)OCCO5)nc12 [Example Compound No. 9, N-((3-fluoropyridin-2-yl)methyl)-2-(2-((2-(1-(2-morpholinoethyl)-6,7-dihydro-1H-[1,4]dioxino[2′,3′:4,5]benzo[1,2-d]imidazol-2-yl)ethyl)amino)ethyl)oxazolo[4,5-c]pyridin-4-amine] | 0.827
